Assay results: patent publication US20240156795A1, “METHODS AND COMPOSITIONS FOR THE TREATMENT OF DRUG RESISTANT TOPICAL INFECTIONS” (Lankenau Institute for Medical Research, priority 2020, published 2024)
Values joined by “and” are separate entries in the source; they are usually repeats but may differ in a detail not shown here. Identical values can stand only once.

Legend:
[1] = i.v. infusion of >50% solutions, cardiac surgery trial (Bennett-Guerrero et al., 2009); cited from earlier work
onychomycosis = settings: topical treatment of toenail fungus; cited from earlier work
Trichophyton rubrum = settings: seven strains of Trichophyton rubrum; reported by others [28]; cited from earlier work
IDO1 = target: T1, IDO1 (Homo sapiens, UniProt P14902); test: IDO1 activity in U937 cells, kynurenine formation after IFN-γ induction; assay type: cell-based; settings: IFN-γ induced, FIG. 2, read-out: IC50 for IDO inhibition in a cellular assay
T1 construct: endogenous in cells; host or cells: U937 cells, induced with IFN-γ
Procedure: IDO1 activity in U937 cells was assessed by spectrophotometric measurement of kynurenine formation in the medium at least 24 hours post-induction with IFN-γ. Values are means of duplicate determinations ±SD.
The IDOL enzyme was first recognized as an antimicrobial. The approved topical formulant ethyl pyruvate (EP) can also blunt IDO levels and reverse immunosuppression in the setting of cancer to enable immune eradication. […] This is finding is not previously reported in the literature. The details of the assay protocol are published elsewhere.

HIF1 = HIF1 stabilization in cells from B6 HIF-luciferase reporter mice, assayed ex vivo; assay type: cell-based, mouse
Procedure: Cells derived from B6 HIF-luciferase reporter mice were assayed ex vivo to detect the stabilization of HIF1 protein. Values are means of duplicate determinations ±SD. In the course of studies of inhibitors of proline hydroxylase-domain protein (PHD), an enzyme regulating cellular HIF1 levels, we observed that 10 μM ciclopirox enhanced the readout by 15-fold (screening data not shown). […] The details for the assay protocol are published elsewhere.

T1 sequence (P14902 whole entry): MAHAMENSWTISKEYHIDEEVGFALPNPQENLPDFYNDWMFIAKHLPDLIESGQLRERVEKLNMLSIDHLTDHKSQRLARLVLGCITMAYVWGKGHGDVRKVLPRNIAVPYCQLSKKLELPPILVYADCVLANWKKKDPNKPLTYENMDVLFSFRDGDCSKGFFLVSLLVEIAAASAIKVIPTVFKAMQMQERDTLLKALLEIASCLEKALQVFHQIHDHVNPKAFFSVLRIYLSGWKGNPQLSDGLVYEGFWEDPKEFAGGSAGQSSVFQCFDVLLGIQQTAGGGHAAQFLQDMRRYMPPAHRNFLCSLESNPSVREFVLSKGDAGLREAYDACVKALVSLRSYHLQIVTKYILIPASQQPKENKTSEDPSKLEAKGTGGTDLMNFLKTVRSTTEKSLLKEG

## CCOC(=O)C(C)=O [EP, ethyl pyruvate]
[1]
  toxicity in humans: No significant toxicities were reported

## C=C1CCN([C@H](C)[C@](O)(Cn2cncn2)c2ccc(F)cc2F)CC1 [Jublia, efinaconazole]
onychomycosis
  efficacy for complete clinical cure: ≤ 18%

## OB1OCc2cc(F)ccc21 [Kerydin, tavarborole]
onychomycosis
  efficacy for complete clinical cure: ≤ 10%

## Cc1cc(C2CCCCC2)n(O)c(=O)c1 [ciclopirox, ciclopirox olamine]
Trichophyton rubrum
  average MIC concentration: ~16 μg/ml and ~77 μM
onychomycosis
  efficacy for complete clinical cure: ≤ 12%
IDO1
  IC50: ~2 µM
HIF1; 10 μM ciclopirox, screening data not shown
  enhancement of HIF readout: 15 fold
HIF1; Mus musculus, follow-up study, FIG. 1, read-out: apparent EC50 for HIF level stimulation
  EC50: 5 µM
HIF1; follow-up study, FIG. 1
  maximal stimulation of HIF levels over the solvent control: ~35 fold
